Assay: Case report: incontinence person with enlarged prostate
Type: in vivo, human
Settings: prescribed for enlarged prostate
Excerpt: The 9-herb composition and Incontinence. Person diagnosed with having an enlarged prostate suffered from frequent-urination problems including increased daily frequency and reduced volume. They had the urge to urinate every two hours and the amount was only a few drops. Their symptoms were attributed to old age. […] They are able to urinate what they consider a normal amount of urine in a steady stream as opposed to the dribbling they experienced prior to taking the 9-herb composition. […] Because they are sleeping better, they have more energy throughout the day.

## CC(C)(C)NC(=O)[C@H]1CC[C@H]2[C@@H]3CC[C@H]4NC(=O)C=C[C@]4(C)[C@H]3CC[C@]12C [PROSCAR]
  effect on urination problem: did not alleviate the urination problem
